The subject of data set [1] is Mycobacterium tuberculosis. Description: Antimycobacterial activity against Mycobacterium tuberculosis H37Rv ATCC 25618 assessed as reduction in viability incubated for 6 days by resazurin reduction microplate assay. The format is functional. The settings on record: H37Rv ATCC 25618, 144 h, time 6 day.
For data set [2], the system named is Mycobacteroides abscessus. Briefly: Antimycobacterial activity against Mycobacterium abscessus RIVM incubated for 1 day by resazurin reduction microplate assay. The format is functional. The note with it: 24 h. (Resazurin is reduced to fluorescent resorufin, in cell work by metabolically active cells.)
For data set [3], the system named is Mycolicibacterium smegmatis. Description: Antimycobacterial activity against Mycobacterium smegmatis MC2 incubated for 2 days by resazurin reduction microplate assay. Type of data set: functional. The note with it: MC2, 48 h, time 2 day.
Data set [4] deals with Mycobacterium tuberculosis. Description: Antimycobacterial activity against Mycobacterium tuberculosis H37Rv ATCC 25618 assessed as reduction in viability at 5 uM incubated for 6 days by resazurin reduction microplate assay. Type of data set: functional. The settings on record: time 6.0 day.
Data set [5] in a line: Inhibition of Mycobacterium tuberculosis DNA gyrase B.
The subject of data set [6] is Enterobacter cloacae. Description: Antibacterial activity against Enterobacter cloacae ATCC13047 incubated for 18 hrs by serial broth microdilution method. Type of data set: functional.
Data set [7] concerns Pseudomonas aeruginosa. Briefly: Antibacterial activity against Pseudomonas aeruginosa ATCC 27853 incubated for 18 hrs by serial broth microdilution method. Type of data set: functional.
Data set [8] relates to Acinetobacter baumannii. Briefly: Antibacterial activity against Acinetobacter baumannii ATCC17978 incubated for 18 hrs by serial broth microdilution method. The format is functional. On the technique in general: Broth dilution looks for growth in wells or tubes with falling amounts of substance.
Data set [9] has as its system Klebsiella pneumoniae. Briefly: Antibacterial activity against Klebsiella pneumoniae ATCC10031 incubated for 18 hrs by serial broth microdilution method. The format is functional.
For data set [10], the target named is DNA topoisomerase 2-alpha (Homo sapiens) (UniProt P11388). Description: Inhibition of human DNA topoisomerase II alpha assessed as residual activity at 10 uM using supercoiled pNO1 plasmid as substrate incubated for 30 mins by diamond dye staining based fluorescence microplate reader assay relative to control.
The target is the same in data set [11]. Briefly: Inhibition of human DNA topoisomerase II alpha assessed as residual activity at 100 uM using supercoiled pNO1 plasmid as substrate incubated for 30 mins by diamond dye staining based fluorescence microplate reader assay relative to control.
Data set [12] concerns Staphylococcus aureus. Briefly: Antibacterial activity against Staphylococcus aureus ATCC 29213 incubated for 18 hrs by serial broth microdilution method. Type of data set: functional.
The subject of data set [13] is Escherichia coli. Briefly: Antibacterial activity against Escherichia coli ATCC 25922 incubated for 18 hrs by serial broth microdilution method. The format is functional.
Data set [14] addresses DNA gyrase subunit A/DNA gyrase subunit B (Mycobacterium tuberculosis (strain ATCC 25618 / H37Rv), UniProt P9WG45+P9WG47). Briefly: Inhibition of Mycobacterium tuberculosis DNA gyrase using […] DNA as substrate incubated for 30 mins by gel based method. Type of data set: protein-complex assay.
Data set [15] has as its target T1, hERG (KCNH2) (Homo sapiens, UniProt Q12809). Briefly: Inhibition of human ERG expressed in HEK293 cells at 10 uM by whole-cell patch clamp method relative to control. Type of data set: toxicity, cell-based. The note with it: HEK293 cells that express hERG. (The patch-clamp technique gives a direct electrical read-out from membranes.)
Data set [16] has as its system Mycobacterium tuberculosis. Briefly: Antimycobacterial activity against GFP-expressing Mycobacterium tuberculosis H37Rv infected in PMA-treated THP-1 cells assessed as increase in number of surviving macrophages at 10 to 30 uM pre-infected for 3 hrs prior to gentamycin addition for 1 hr followed by washout and compound addition measured after 4 days by fluorescence microscopic analysis. The format is functional, organism-based. The settings on record: dose 10-30 µM, time 4.0 day.

Data set [17] is described as follows: Inhibition of Escherichia coli DNA topoisomerase IV […] using supercoiled pNO1 as substrate measured after 30 mins by SybrGOLD staining based fluorescence microplate reader analysis.
Data set [18] deals with DNA gyrase (Escherichia coli, UniProt P0AES4+P0AES6). Briefly: Inhibition of Escherichia coli DNA gyrase using relaxed pNO1 as substrate measured after 30 mins by SybrGOLD staining based fluorescence microplate reader analysis. Type of data set: protein-complex assay.
The subject of data set [19] is Segatella copri. Briefly: Antibacterial activity against Prevotella copri DSM 18205 measured at 15 mins interval for 24 hrs by broth microdilution method. Type of data set: functional.
The test system of data set [20] is Escherichia coli. Briefly: Antibacterial activity against Escherichia coli ATCC 25922 harboring deltaTolC mutant incubated for 18 hrs by serial broth microdilution method. Type of data set: functional.
The subject of data set [21] is THP-1. Briefly: Cytotoxicity against human THP-1 cells assessed as reduction in viability at 40 uM pretreated with PMA for 48 hrs followed by washout and compound addition for 5 days by resazurin sodium salt method. Type of data set: toxicity, cell-based. The settings on record: thp-1, 120 h, time 5 day.
The subject of data set [22] is Mycobacterium tuberculosis. Briefly: Antimycobacterial activity against GFP-expressing Mycobacterium tuberculosis H37Rv infected in PMA-treated THP-1 cells assessed as bacterial viability pre-infected for 3 hrs prior to gentamycin addition for 1 hr followed by washout and compound addition measured after 4 days by fluorescence microscopic analysis. The settings on record: dose 1-30 µM, time 4.0 day. Type of data set: functional, organism-based.

For data set [23], the target named is T1, hERG (KCNH2). Briefly: Inhibition of human ERG expressed in HEK293 cells at 50 uM by whole-cell patch clamp method relative to control. Type of data set: toxicity, cell-based. The settings on record: HEK293 cells that express hERG.
Data set [24] has as its system MCF7. Description: Cytotoxicity against human MCF7 cells assessed as residual activity at 50 uM incubated for 72 hrs by MTS assay. The format is functional.
The nature of data set [25]: Acute toxicity in zebrafish embryo assessed as change in behavior upto 5 mM measured for 4 days. Set-up: species or system Danio rerio. The note with it: in vivo, 96 h, 5000 µM, time 4 day.
The nature of data set [26]: Acute toxicity in zebrafish embryo assessed as effect on embryo development upto 5 mM measured for 4 days. Set-up: species or system Danio rerio. The settings on record: in vivo, 96 h, 5000 µM, time 4 day.
Data set [27] in a line: Inhibition of Mycobacterium smegmatis DNA gyrase using […] DNA as substrate incubated for 30 mins by gel based method. Also noted: species or system Mycolicibacterium smegmatis.
Data set [28] relates to Anaerostipes hadrus. Description: Antibacterial activity against Anaerostipes hadrus DSM 3319 measured at 15 mins interval for 24 hrs by broth microdilution method. The format is functional.
Data set [29] in a line: Acute toxicity in zebrafish embryo assessed as effect on embryo survival upto 5 mM measured for 4 days. Also noted: species or system Danio rerio. The settings on record: in vivo, 96 h, 5000 µM, time 4 day.
Data set [30] in a line: Kinetic solubility of compound in PBS at 100 uM incubated for 20 hrs in shaker by LC-MS/MS analysis. Type of data set: physicochemical. The note with it: read-out: Kinetic_solubility.
Data set [31] relates to Bacteroides thetaiotaomicron. Briefly: Antibacterial activity against Bacteroides thetaiotaomicron DSM 2079 measured at 15 mins interval for 24 hrs by broth microdilution method. Type of data set: functional.
The test system of data set [32] is THP-1. Briefly: Cytotoxicity against replicating human THP-1 cells upto 40 uM. The note with it: thp-1, 40 µM. The format is toxicity, cell-based.

In general, MIC90 refers to an inhibitory concentration at the 90% level, which refers to growth in some studies and to a panel of isolates in others. In general, IC50 refers to the concentration that gives 50% inhibition. One may read the inhibition as how much of the control response was suppressed. High values mean strong suppression, low ones little suppression. As a reminder, the MIC is the lowest concentration that inhibits growth of the organism. The low end stands for greater potency, the high end for weaker potency.

The structures appear in SMILES notation. Values after ≈ are worked out from the molar mass of the structure shown. Active and inactive are the calls of the source. The calls are words filed in the database; no cut-off is given here.

DNA topoisomerase 2-alpha (Homo sapiens), sequence (P11388 whole entry): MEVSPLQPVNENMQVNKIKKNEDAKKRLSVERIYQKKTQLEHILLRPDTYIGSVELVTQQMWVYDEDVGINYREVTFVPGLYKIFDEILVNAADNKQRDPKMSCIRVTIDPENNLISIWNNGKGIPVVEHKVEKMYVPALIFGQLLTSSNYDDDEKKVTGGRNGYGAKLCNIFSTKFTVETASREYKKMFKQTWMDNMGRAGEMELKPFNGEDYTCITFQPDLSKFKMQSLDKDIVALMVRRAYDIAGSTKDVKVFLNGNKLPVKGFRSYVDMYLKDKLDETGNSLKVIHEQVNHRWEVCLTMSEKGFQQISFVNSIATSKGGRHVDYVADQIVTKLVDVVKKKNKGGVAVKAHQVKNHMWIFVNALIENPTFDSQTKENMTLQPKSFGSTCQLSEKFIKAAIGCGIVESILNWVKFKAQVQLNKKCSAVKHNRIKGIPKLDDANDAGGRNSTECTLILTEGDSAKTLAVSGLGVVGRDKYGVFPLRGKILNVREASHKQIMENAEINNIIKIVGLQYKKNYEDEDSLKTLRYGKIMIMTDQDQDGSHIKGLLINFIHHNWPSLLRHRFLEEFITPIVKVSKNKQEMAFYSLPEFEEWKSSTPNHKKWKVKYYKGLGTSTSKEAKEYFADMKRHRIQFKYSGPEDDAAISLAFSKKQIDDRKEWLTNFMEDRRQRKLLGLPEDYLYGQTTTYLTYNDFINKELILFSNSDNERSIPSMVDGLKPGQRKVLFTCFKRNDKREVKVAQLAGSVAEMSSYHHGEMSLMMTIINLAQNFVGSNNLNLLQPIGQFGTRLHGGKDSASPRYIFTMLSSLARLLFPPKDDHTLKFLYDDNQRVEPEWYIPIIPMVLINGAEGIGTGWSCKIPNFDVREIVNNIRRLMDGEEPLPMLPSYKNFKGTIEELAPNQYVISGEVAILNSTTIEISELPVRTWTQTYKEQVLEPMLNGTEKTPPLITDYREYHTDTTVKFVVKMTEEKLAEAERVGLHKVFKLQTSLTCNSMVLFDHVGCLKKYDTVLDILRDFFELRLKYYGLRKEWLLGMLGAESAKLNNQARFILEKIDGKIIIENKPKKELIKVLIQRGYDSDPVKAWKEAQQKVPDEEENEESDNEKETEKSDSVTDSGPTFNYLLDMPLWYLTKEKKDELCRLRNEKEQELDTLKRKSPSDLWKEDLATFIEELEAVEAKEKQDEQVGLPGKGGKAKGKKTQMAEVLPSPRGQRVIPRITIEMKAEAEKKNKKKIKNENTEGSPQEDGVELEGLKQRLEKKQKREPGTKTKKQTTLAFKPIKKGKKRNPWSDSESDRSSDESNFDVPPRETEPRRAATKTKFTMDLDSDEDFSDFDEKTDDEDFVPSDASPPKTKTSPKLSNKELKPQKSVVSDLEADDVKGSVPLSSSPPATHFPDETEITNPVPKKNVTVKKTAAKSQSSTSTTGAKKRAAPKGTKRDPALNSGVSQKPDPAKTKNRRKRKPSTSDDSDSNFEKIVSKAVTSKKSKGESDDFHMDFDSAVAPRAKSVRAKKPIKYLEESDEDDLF
T1 sequence (Q12809 whole entry): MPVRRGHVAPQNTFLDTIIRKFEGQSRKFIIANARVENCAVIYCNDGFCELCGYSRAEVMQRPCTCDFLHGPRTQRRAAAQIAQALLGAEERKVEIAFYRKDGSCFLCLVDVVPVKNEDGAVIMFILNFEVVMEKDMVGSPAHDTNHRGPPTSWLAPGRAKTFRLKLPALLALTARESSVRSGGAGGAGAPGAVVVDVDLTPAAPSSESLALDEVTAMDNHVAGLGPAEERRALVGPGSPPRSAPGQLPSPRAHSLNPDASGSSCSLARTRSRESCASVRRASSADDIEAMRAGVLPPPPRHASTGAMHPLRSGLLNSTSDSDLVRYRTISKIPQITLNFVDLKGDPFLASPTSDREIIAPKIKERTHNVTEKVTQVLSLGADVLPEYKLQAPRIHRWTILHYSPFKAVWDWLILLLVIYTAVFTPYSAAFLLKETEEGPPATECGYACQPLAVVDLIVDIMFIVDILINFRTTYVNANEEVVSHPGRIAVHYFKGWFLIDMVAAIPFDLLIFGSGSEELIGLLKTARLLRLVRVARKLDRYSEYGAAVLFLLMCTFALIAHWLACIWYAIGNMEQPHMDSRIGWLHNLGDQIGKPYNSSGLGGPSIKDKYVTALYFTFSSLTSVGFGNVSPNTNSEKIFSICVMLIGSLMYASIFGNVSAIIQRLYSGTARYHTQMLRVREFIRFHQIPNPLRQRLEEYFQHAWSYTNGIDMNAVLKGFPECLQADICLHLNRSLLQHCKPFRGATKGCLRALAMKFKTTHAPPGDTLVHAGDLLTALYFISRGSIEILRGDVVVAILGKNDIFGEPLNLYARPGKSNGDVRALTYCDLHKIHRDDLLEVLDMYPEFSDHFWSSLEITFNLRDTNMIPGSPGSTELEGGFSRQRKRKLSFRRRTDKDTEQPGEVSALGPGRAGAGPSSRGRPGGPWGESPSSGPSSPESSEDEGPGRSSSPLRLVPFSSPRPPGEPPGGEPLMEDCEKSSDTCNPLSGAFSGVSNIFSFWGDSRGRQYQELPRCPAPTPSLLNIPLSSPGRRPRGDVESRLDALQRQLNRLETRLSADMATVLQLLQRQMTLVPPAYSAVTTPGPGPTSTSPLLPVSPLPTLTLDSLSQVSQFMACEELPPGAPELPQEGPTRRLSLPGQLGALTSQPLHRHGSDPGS
DNA gyrase subunit A/DNA gyrase subunit B, sequence (P9WG45 whole entry): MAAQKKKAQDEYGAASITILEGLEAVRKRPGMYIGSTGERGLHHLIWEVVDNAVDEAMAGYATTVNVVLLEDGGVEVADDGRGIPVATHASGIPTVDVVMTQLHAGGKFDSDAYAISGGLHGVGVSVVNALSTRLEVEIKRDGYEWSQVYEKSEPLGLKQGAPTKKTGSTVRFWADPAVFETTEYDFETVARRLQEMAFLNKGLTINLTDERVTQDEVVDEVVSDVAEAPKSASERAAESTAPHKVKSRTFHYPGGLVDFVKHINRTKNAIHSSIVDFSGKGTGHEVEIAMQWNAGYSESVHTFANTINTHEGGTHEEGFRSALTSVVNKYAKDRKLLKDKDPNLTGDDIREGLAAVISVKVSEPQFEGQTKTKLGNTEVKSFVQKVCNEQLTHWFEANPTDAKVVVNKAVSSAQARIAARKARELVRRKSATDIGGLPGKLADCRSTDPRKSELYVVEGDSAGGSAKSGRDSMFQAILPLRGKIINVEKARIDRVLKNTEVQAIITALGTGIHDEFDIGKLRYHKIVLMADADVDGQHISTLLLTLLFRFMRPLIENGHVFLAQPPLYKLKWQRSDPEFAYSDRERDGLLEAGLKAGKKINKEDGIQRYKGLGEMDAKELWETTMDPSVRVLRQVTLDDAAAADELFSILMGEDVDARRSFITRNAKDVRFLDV
DNA gyrase subunit A/DNA gyrase subunit B, sequence (P9WG47 whole entry): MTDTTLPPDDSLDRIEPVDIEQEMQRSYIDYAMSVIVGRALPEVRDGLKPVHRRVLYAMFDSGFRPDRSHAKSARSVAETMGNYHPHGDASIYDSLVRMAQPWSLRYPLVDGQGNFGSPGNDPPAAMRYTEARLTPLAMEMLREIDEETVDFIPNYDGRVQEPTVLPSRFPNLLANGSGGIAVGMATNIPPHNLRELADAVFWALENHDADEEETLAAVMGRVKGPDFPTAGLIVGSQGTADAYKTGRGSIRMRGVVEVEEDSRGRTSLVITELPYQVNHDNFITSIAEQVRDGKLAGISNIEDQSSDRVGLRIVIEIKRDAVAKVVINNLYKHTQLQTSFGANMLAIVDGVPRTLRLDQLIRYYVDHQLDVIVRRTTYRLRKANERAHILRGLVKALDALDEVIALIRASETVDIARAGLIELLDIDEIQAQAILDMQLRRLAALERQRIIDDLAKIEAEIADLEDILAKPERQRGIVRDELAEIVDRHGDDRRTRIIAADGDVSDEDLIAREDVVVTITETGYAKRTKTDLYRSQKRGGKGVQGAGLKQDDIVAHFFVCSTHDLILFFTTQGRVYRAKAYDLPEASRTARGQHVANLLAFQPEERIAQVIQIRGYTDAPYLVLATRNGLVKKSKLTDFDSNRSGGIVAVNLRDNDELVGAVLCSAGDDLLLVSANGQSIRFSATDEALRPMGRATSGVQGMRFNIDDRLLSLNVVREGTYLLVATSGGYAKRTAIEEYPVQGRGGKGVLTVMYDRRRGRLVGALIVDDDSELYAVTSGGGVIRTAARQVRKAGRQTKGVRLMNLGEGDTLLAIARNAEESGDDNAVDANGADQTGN

As to `Cc1[nH]c(C(=O)Nc2nc3c(OC(CN4CCC(N(C)C)CC4)c4ccccc4)cc(C(=O)O)cc3s2)c(Cl)c1Cl` (stereo not given), the MIC90 in data set [1] was found to be 10 µM (≈ 6.17 µg/mL); in [2] it was 2.5 µM (≈ 1.54 µg/mL); in [3] it was 5 µM (≈ 3.08 µg/mL).
As for `Cc1[nH]c(C(=O)Nc2nc3c(OCc4ccccc4)cc(C(=O)O)cc3s2)c(Cl)c1Cl`, the outcome in data set [4] was inactive. In data set [5], this compound yielded a half-maximal inhibitory concentration (IC50) of 5.1 nM.
Regarding `Cc1[nH]c(C(=O)Nc2nc3c(OC(CN4CCN(C)CC4)C4CC4)cc(C(=O)O)cc3s2)c(Cl)c1Cl` (stereo not given), the MIC90 in data set [6] was above 116 µM; in data set [1], 5 µM (≈ 2.76 µg/mL); in data set [7], above 116 µM; in data set [2], 0.63 µM (≈ 0.348 µg/mL); in data set [8] it was above 116 µM; in data set [9], 7 µM (≈ 3.87 µg/mL). Also, the values for the MIC90 in data set [12], in data set [3] and in data set [13] were 14 µM (≈ 7.73 µg/mL), 0.63 µM (≈ 0.348 µg/mL) and above 116 µM, respectively. For the same compound, the Activity in data set [10] and in [11] was 99% in each case.
Take `Cc1[nH]c(C(=O)Nc2nc3c(OC(CN4CC[N+](C)(C)CC4)c4ccccc4)cc(C(=O)O)cc3s2)c(Cl)c1Cl` (stereo not given): the MIC90 in [1] amounted to 0.31 µM; in [2] it was 0.63 µM; in [3] it was 0.32 µM. The outcome in data set [12] was inactive.
As to `Cc1[nH]c(C(=O)Nc2nc3c(OC(CN4CCOCC4)C4CC4)cc(C(=O)O)cc3s2)cc1F` (stereo not given), the MIC90 is above 131 µM in data set [6]; above 20 µM in [1]; above 131 µM in [7]; 1.25 µM (≈ 0.611 µg/mL) in data set [2]; above 131 µM in [8]; 33 µM (≈ 16.1 µg/mL) in data set [9]. Also, the MIC90 in data set [12] is 131 µM (≈ 64 µg/mL); in data set [3], 2.5 µM (≈ 1.22 µg/mL); in data set [13] it was above 131 µM.
Consider `Cc1[nH]c(C(=O)Nc2nc3c(OC(CN(C)C)c4ccccc4)cc(C(=O)O)cc3s2)c(Cl)c1Cl` (stereo not given), for which the MIC90 in data set [1] came out at 1.25 µM (≈ 0.667 µg/mL); in [2], 0.63 µM (≈ 0.336 µg/mL); in data set [3], 0.16 µM (≈ 0.0853 µg/mL).
Take `Cc1[nH]c(C(=O)Nc2nc3c(OC(CN4CCOCC4)c4ccccc4)cc(C(=O)O)cc3s2)cc1F` (stereo not given): the MIC90 in [1] is above 40 µM; in data set [2] it was 2.5 µM (≈ 1.31 µg/mL); in [3], 10 µM (≈ 5.25 µg/mL). The result in [12] was inactive.
On to `Cc1[nH]c(C(=O)Nc2nc3c(OC(C)C4CCNCC4)cc(C(=O)O)cc3s2)c(Cl)c1Cl` (stereo not given), for which the IC50 was 4.1 nM in data set [14], 99 nM in data set [17], below 10 nM in data set [18] and 5.7 nM in [27]. The inhibition at 10 µM in data set [15] stood at 4.2%. In addition, the result in data set [16] was Active. Besides, the MIC90 is 0.63 µM (≈ 0.313 µg/mL) in data set [1]; above 120 µM in data set [7]; 2 µM (≈ 0.995 µg/mL) in [20]; 2.5 µM (≈ 1.24 µg/mL) in data set [2]; above 120 µM in data set [8]; above 120 µM in data set [9]. Further, the figures for the MIC90 in data set [12], in [3] and in data set [13] were above 120 µM, 2.5 µM (≈ 1.24 µg/mL) and above 120 µM, respectively. Further, the MIC in [19], in [28] and in [31] was above 20 µM throughout. In addition, the Activity entry is “Non-Toxic” in data set [21]; “Dose-Dependent Effect” in data set [22]; 81% in data set [24]; 96% in data set [10]; “Non-Toxic” in [25]; 96% in data set [11]. The Activity result in [26], in data set [29] and in data set [32] was “Non-Toxic” in each case. In data set [23], this compound came in with an inhibition at 50 µM of 29%. Moreover, in data set [30], the solubility kinetic at 20 h, 100 µM was 1 µM (≈ 0.497 µg/mL).

Values taken from ChEMBL document CHEMBL5608207, “Development of narrow-spectrum topoisomerase-targeting antibacterials against mycobacteria” (Eur J Med Chem, 2024).
